Measured values taken from paper PMC6150413 (Molecules : A Journal of Synthetic Chemistry and Natural …, 2017).
Where two headings read alike, the source gives them in different places. Peptide text beside a SMILES is read from it.

What was measured:
[1] = test system: E. coli ATCC 25922
Protocol: (§1) The antimicrobial activities of VIP and its analogues were tested against S. aureus ATCC 25923 and E. coli ATCC 25922 according to the method reported by Wani et al. with slight modification. The final peptide concentrations ranged from 0.5 to 256 μM. The tests were performed in triplicate using 4 replicates for each experiment. In addition, S. aureus ATCC 25923 and E. coli ATCC 25922 (2 × 10^6 CFU/mL) were treated with natural VIP and VIP8 at MIC for 2 h. […] The haemolytic activity of VIP and VIP derivatives were measured using porcine erythrocytes according to previous method. MTT (3-[4,5 dimethylthiozol-2-yl]-2,5-diphenyltetrazolium bromide) was used to determine the cytotoxicity of VIP and its analogue on porcine intestinal epithelial cells IPEC-J2. Stable experiments were conducted with reference to the literature with slightly changes. First, the pH of the mediums was adjusted to acidic (pH 4.0, pH 5.0, and pH 6.0) and basic (pH 8.0, pH 9.0, and pH 10.0) conditions. To investigate the effects of ion strength, the bacterial mediums were supplemented with different concentrations of NaCl (20 mM, 60 mM, and 180 mM) or MgCl2 (1 mM, 25 mM, and 50 mM). Then, bacteria were incubated with VIP, VIP analogues 2 and 8, respectively. After 3 h of incubation, bacterial viability was measured with a Synergy HT multimode reader (BioTek, Winooski, VT, USA) at 600 nm.
(§2) Both the agar diffusion test and modified broth microdilution method were used to evaluate the antimicrobial activity of recombinant expressed VIP8. For the Oxford cup agar diffusion, the sample was added to an Oxford cup, which was then placed on a Mueller-Hinton agar plate containing 1 × 10^5 colony-forming units of S. aureus […]. Chemically-synthesized VIP8 and ampicillin were used as the positive control. The minimal inhibition concentration was determined by the method reported by Wani et al..

[2] = test system: S. aureus ATCC 25923
Protocol: as §1, §2

[3] = E. coli ATCC 25922, peptide 0.5 to 256 μM, triplicate, 4 replicates each, Table 2
[4] = S. aureus ATCC 25923, peptide 0.5 to 256 μM, triplicate, 4 replicates each, Table 2

MIC (minimal inhibitory concentration) ([1]; ATCC 25922, 2 h) [µM] | MIC (minimum inhibitory concentration) ([1]; ATCC 25922, 2 h) [µM] | MIC (minimal inhibitory concentration) ([2]; ATCC 25923, 2 h) [µM] | MIC (minimum inhibitory concentration) ([2]; ATCC 25923, 2 h) [µM] | SMILES | MBC (minimum bactericidal concentration) ([1]; ATCC 25922, 2 h) [µM] | MBC (minimum bactericidal concentration) ([2]; ATCC 25923, 2 h) [µM] | MBC (minimum bactericidal concentration) [1, 3] [µM] | MIC (minimum inhibitory concentration) [1, 3] [µM] | MBC (minimum bactericidal concentration) [2, 4] [µM] | MIC (minimum inhibitory concentration) [2, 4] [µM]
2 | 2 | 8 | 8 | CC[C@H](C)[C@H](NC(=O)CNC(=O)[C@H](CCC(=O)O)NC(=O)[C@H](CO)NC(=O)[C@@H](NC(=O)[C@H](CCCNC(=N)N)NC(=O)[C@H](CCCCN)NC(=O)[C@H](CCCCN)NC(=O)[C@H](C)NC(=O)[C@H](CO)NC(=O)[C@H](CC(N)=O)NC(=O)[C@H](CCC(=O)O)NC(=O)[C@H](CC(C)C)NC(=O)[C@H](CCCCN)NC(=O)[C@H](CCCCN)NC(=O)[C@H](C)NC(=O)[C@@H](NC(=O)[C@H](CCCCN)NC(=O)[C@H](CO)NC(=O)[C@H](CC(C)C)NC(=O)[C@H](Cc1c[nH]c2ccccc12)NC(=O)[C@@H](N)CO)[C@@H](C)O)[C@@H](C)CC)C(=O)N[C@@H](C)C(=O)N[C@H](C(=O)N[C@@H](C)C(=O)N[C@H](C(=O)N[C@@H](CCC(N)=O)C(=O)NCC(=O)NCC(=O)N1CCC[C@H]1C(=O)N[C@@H](CCCNC(=N)N)C(=O)O)[C@@H](C)CC)[C@@H](C)CC [Cecropin P1, reference compound] (H-SWLSKTAKKLENSAKKRISEGIAIAIQGGPR-OH) | 4 | 8 |  |  |  | 
 | 8 |  | 16 | CC[C@H](C)[C@H](NC(=O)[C@H](C)NC(=O)[C@H](C)NC(=O)[C@H](CC(C)C)NC(=O)[C@H](Cc1ccc(O)cc1)NC(=O)[C@H](CCCNC(=N)N)NC(=O)[C@H](CCCNC(=N)N)NC(=O)[C@@H](NC(=O)[C@H](C)NC(=O)[C@H](CC(C)C)NC(=O)[C@H](CCC(N)=O)NC(=O)[C@H](CCCNC(=N)N)NC(=O)[C@H](CCCNC(=N)N)NC(=O)[C@H](CC(C)C)NC(=O)[C@H](CCCNC(=N)N)NC(=O)[C@@H](NC(=O)[C@H](Cc1ccc(O)cc1)NC(=O)[C@H](CC(N)=O)NC(=O)[C@H](C)NC(=O)[C@@H](NC(=O)[C@H](Cc1ccccc1)NC(=O)[C@@H](NC(=O)[C@H](C)NC(=O)[C@H](CC(=O)O)NC(=O)[C@H](CO)NC(=O)[C@@H](N)Cc1c[nH]cn1)C(C)C)[C@@H](C)O)[C@@H](C)O)C(C)C)C(=O)N[C@@H](CC(C)C)C(=O)NCC(=O)N[C@@H](CCCNC(=N)N)C(=O)N[C@@H](CCCNC(=N)N)C(=O)O [VIP7] (H-HSDAVFTANYTRLRRQLAVRRYLAAILGRR-OH) | 8 | 32 |  |  |  | 

Second part, the compound before the results:

SMILES | MIC (minimal inhibitory concentration) ([1]; ATCC 25922, 2 h) [µM] | MIC (minimum inhibitory concentration) ([1]; ATCC 25922, 2 h) [µM] | MIC (minimal inhibitory concentration) ([2]; ATCC 25923, 2 h) [µM] | MIC (minimum inhibitory concentration) ([2]; ATCC 25923, 2 h) [µM] | MBC (minimum bactericidal concentration) ([1]; ATCC 25922, 2 h) [µM] | MBC (minimum bactericidal concentration) ([2]; ATCC 25923, 2 h) [µM] | MBC (minimum bactericidal concentration) [1, 3] [µM] | MIC (minimum inhibitory concentration) [1, 3] [µM] | MBC (minimum bactericidal concentration) [2, 4] [µM] | MIC (minimum inhibitory concentration) [2, 4] [µM]
CC[C@H](C)[C@H](NC(=O)[C@H](CO)NC(=O)[C@H](CC(N)=O)NC(=O)[C@H](CC(C)C)NC(=O)[C@H](CO)NC(=O)[C@H](CCCCN)NC(=O)[C@H](CCCCN)NC(=O)[C@@H](NC(=O)[C@H](C)NC(=O)[C@H](CCSC)NC(=O)[C@H](CCC(N)=O)NC(=O)[C@H](CCCCN)NC(=O)[C@H](CCCNC(=N)N)NC(=O)[C@H](CC(C)C)NC(=O)[C@H](CCCNC(=N)N)NC(=O)[C@@H](NC(=O)[C@H](CO)NC(=O)[C@H](CC(N)=O)NC(=O)[C@H](CC(=O)O)NC(=O)[C@@H](NC(=O)[C@H](Cc1ccccc1)NC(=O)[C@@H](NC(=O)[C@H](C)NC(=O)[C@H](CC(=O)O)NC(=O)[C@H](CO)NC(=O)[C@@H](N)Cc1c[nH]cn1)C(C)C)[C@@H](C)O)[C@@H](C)O)C(C)C)C(=O)N[C@@H](CC(C)C)C(=O)N[C@@H](CC(N)=O)C(=O)O [VIP3] (H-HSDAVFTDNSTRLRKQMAVKKSLNSILN-OH) |  |  |  |  |  |  | >256 | >256 | >256 | >256
CC[C@H](C)[C@H](NC(=O)[C@H](CO)NC(=O)[C@H](CC(N)=O)NC(=O)[C@H](CC(C)C)NC(=O)[C@H](Cc1ccc(O)cc1)NC(=O)[C@H](CCCCN)NC(=O)[C@H](CCCCN)NC(=O)[C@@H](NC(=O)[C@H](C)NC(=O)[C@H](CCSC)NC(=O)[C@H](CCC(N)=O)NC(=O)[C@H](CCCCN)NC(=O)[C@H](CCCNC(=N)N)NC(=O)[C@H](CC(C)C)NC(=O)[C@H](CCCNC(=N)N)NC(=O)[C@@H](NC(=O)[C@H](Cc1ccc(O)cc1)NC(=O)[C@H](CC(N)=O)NC(=O)[C@H](CC(=O)O)NC(=O)[C@@H](NC(=O)[C@H](Cc1ccccc1)NC(=O)[C@@H](NC(=O)[C@H](C)NC(=O)[C@H](CC(=O)O)NC(=O)[C@H](CO)NC(=O)[C@@H](N)Cc1c[nH]cn1)C(C)C)[C@@H](C)O)[C@@H](C)O)C(C)C)C(=O)N[C@@H](CC(C)C)C(=O)N[C@H](C(=O)O)[C@@H](C)O [VIP4] (H-HSDAVFTDNYTRLRKQMAVKKYLNSILT-OH) |  | >256 |  | >256 | >256 | >256 |  |  |  | 
CC[C@H](C)[C@H](NC(=O)[C@H](CO)NC(=O)[C@H](CC(N)=O)NC(=O)[C@H](CC(C)C)NC(=O)[C@H](Cc1ccc(O)cc1)NC(=O)[C@H](CCCCN)NC(=O)[C@H](CCCCN)NC(=O)[C@@H](NC(=O)[C@H](C)NC(=O)[C@H](CCSC)NC(=O)[C@H](CCC(N)=O)NC(=O)[C@H](CCCCN)NC(=O)[C@H](CCCNC(=N)N)NC(=O)[C@H](CC(C)C)NC(=O)[C@H](CCCNC(=N)N)NC(=O)[C@@H](NC(=O)[C@H](Cc1ccc(O)cc1)NC(=O)[C@H](CC(N)=O)NC(=O)[C@H](CCCCN)NC(=O)[C@@H](NC(=O)[C@H](Cc1ccccc1)NC(=O)[C@@H](NC(=O)[C@H](C)NC(=O)[C@H](CCCCN)NC(=O)[C@H](CO)NC(=O)[C@@H](N)Cc1c[nH]cn1)C(C)C)[C@@H](C)O)[C@@H](C)O)C(C)C)C(=O)N[C@@H](CC(C)C)C(=O)N[C@H](C(=O)O)[C@@H](C)O [VIP5] (H-HSKAVFTKNYTRLRKQMAVKKYLNSILT-OH) |  | >256 |  | >256 | >256 | >256 |  |  |  | 
CC[C@H](C)[C@H](NC(=O)[C@H](CO)NC(=O)[C@H](CC(N)=O)NC(=O)[C@H](CC(C)C)NC(=O)[C@H](CO)NC(=O)[C@H](CCCCN)NC(=O)[C@H](CCCCN)NC(=O)[C@@H](NC(=O)[C@H](C)NC(=O)[C@H](CCSC)NC(=O)[C@H](CCC(N)=O)NC(=O)[C@H](CCCCN)NC(=O)[C@H](CCCNC(=N)N)NC(=O)[C@H](CC(C)C)NC(=O)[C@H](CCCNC(=N)N)NC(=O)[C@@H](NC(=O)[C@H](CO)NC(=O)[C@H](CC(N)=O)NC(=O)[C@H](CC(=O)O)NC(=O)[C@@H](NC(=O)[C@H](Cc1ccccc1)NC(=O)[C@@H](NC(=O)[C@H](C)NC(=O)[C@H](CC(=O)O)NC(=O)[C@H](CO)NC(=O)[C@@H](N)Cc1c[nH]cn1)C(C)C)[C@@H](C)O)[C@@H](C)O)C(C)C)C(=O)N[C@@H](CC(C)C)C(=O)N[C@H](C(=O)O)[C@@H](C)O [VIP6] (H-HSDAVFTDNSTRLRKQMAVKKSLNSILT-OH) |  | >256 |  | >256 | >256 | >256 |  |  |  | 
